Laboratory results published in ChEMBL document CHEMBL1201862, “PubChem BioAssay data set” (2004).
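How tested: cells in 96-well plates exposed to compound for 48 hours at five concentrations. Abbreviation: GI50, concentration required for 50% inhibition of growth.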 Calls of active or inactive are those of the source. Cut-off read from the data, not from the text of the source: active = GI50 up to about 1.1 µM and inactive = higher.

Tests used:
Test in all cases: NCI-60 cell line screen, 48 h
[1] = test system: A498
[2] = test system: CAKI-1
[3] = test system: DU-145
[4] = test system: EKVX
[5] = test system: HL-60
[6] = test system: HT-29
[7] = test system: KM12
[8] = test system: M14
[9] = test system: MCF7
[10] = test system: MDA-N
[11] = test system: Malme-3M
[12] = test system: NCI-H23
[13] = test system: NCI-H522
[14] = test system: RXF 393
[15] = test system: SK-MEL-28
[16] = test system: SN12C
[17] = test system: SW-620
[18] = test system: T47D
[19] = test system: TK-10
[20] = test system: UACC-257

SMILES	GI50 [1]	GI50 [2]	GI50 [3]	GI50 [4]	GI50 [5]	GI50 [6]	GI50 [7]	GI50 [8]	GI50 [9]	GI50 [10]	GI50 [11]	GI50 [12]	GI50 [13]	GI50 [14]	GI50 [15]	GI50 [16]	GI50 [17]	GI50 [18]	GI50 [19]	GI50 [20]
O=C(O)C1CC(c2ccc(F)cc2)=Nc2ccc(F)cc2S1 (stereo not given)	> 100 µM (inactive)	> 100 µM (inactive)	> 100 µM (inactive)	> 100 µM (inactive)	> 100 µM (inactive)	> 100 µM (inactive)	> 100 µM (inactive)	68.2 µM (inactive)	> 100 µM (inactive)	> 100 µM (inactive)	> 100 µM (inactive)	> 100 µM (inactive)	> 100 µM (inactive)	> 100 µM (inactive)	> 100 µM (inactive)	> 100 µM (inactive)	> 100 µM (inactive)	> 100 µM (inactive)	> 100 µM (inactive)	> 100 µM (inactive)
CC(Br)CN(CC(C)Br)c1ccc2c(c1)Cc1ccccc1-2 (stereo not given)	13 µM (inactive)	9.2 µM (inactive)	11.1 µM (inactive)	13.8 µM (inactive)	1.73 µM (inactive)	13 µM (inactive)	16.5 µM (inactive)	11.6 µM (inactive)	6.49 µM (inactive)	15.2 µM (inactive)	11.7 µM (inactive)	12 µM (inactive)	6.9 µM (inactive)	14.3 µM (inactive)	18.9 µM (inactive)	11.4 µM (inactive)	14.2 µM (inactive)	10.1 µM (inactive)	12.3 µM (inactive)	14.1 µM (inactive)
O=S1(=O)NC2CCC3NS(=O)(=O)NC4CCC(N1)N4S(=O)(=O)N23 (stereo not given)	> 100 µM (inactive)	> 100 µM (inactive)	> 100 µM (inactive)	> 100 µM (inactive)	> 100 µM (inactive)	> 100 µM (inactive)	> 100 µM (inactive)	> 100 µM (inactive)	> 100 µM (inactive)	> 100 µM (inactive)	> 100 µM (inactive)	> 100 µM (inactive)	> 100 µM (inactive)	> 100 µM (inactive)	> 100 µM (inactive)	> 100 µM (inactive)	> 100 µM (inactive)	> 100 µM (inactive)	> 100 µM (inactive)	> 100 µM (inactive)
CCN(CC)CC(C)(C)C(=O)/C=C/c1ccc(/C=C/C(=O)C(C)(C)CN(CC)CC)cc1	1.7 µM (inactive)	0.733 µM (active)	2.01 µM (inactive)	1.63 µM (inactive)	0.0499 µM (active)	0.211 µM (active)	0.879 µM (active)	1.03 µM (active)	0.233 µM (active)	0.44 µM (active)	1.12 µM (inactive)	0.991 µM (active)	0.104 µM (active)	0.233 µM (active)	0.796 µM (active)	0.471 µM (active)	0.211 µM (active)	0.587 µM (active)	1.19 µM (inactive)	1.62 µM (inactive)
CC(C)C[C@H](NC(=O)[C@@H](Cc1cccc2ccccc12)NC(=O)N1CCOCC1)B(O)O	4.05 µM (inactive)	11.1 µM (inactive)	10.9 µM (inactive)	14.3 µM (inactive)	2.77 µM (inactive)	2.64 µM (inactive)	5.13 µM (inactive)	3.11 µM (inactive)	5.43 µM (inactive)	2.59 µM (inactive)	1.58 µM (inactive)	2.9 µM (inactive)	1.92 µM (inactive)	2.4 µM (inactive)	2.14 µM (inactive)	5.55 µM (inactive)	3.14 µM (inactive)	2.45 µM (inactive)	6.47 µM (inactive)	2.18 µM (inactive)
O=C(O)C(Oc1nc(S)nc(S)n1)(c1ccc(Cl)cc1)c1ccc(Cl)cc1	> 100 µM (inactive)	> 100 µM (inactive)	> 100 µM (inactive)	> 100 µM (inactive)	> 100 µM (inactive)	> 100 µM (inactive)	> 100 µM (inactive)	> 100 µM (inactive)	> 100 µM (inactive)	> 100 µM (inactive)	> 100 µM (inactive)	> 100 µM (inactive)	> 100 µM (inactive)	> 100 µM (inactive)	> 100 µM (inactive)	> 100 µM (inactive)	> 100 µM (inactive)	> 100 µM (inactive)	> 100 µM (inactive)	> 100 µM (inactive)
COc1ccc(C2Oc3ccc(Cl)cc3C=C2[N+](=O)[O-])cc1OC (stereo not given)	3.37 µM (inactive)	1.67 µM (inactive)	1.62 µM (inactive)	2.72 µM (inactive)	0.204 µM (active)	1 µM (active)	1.48 µM (inactive)	0.231 µM (active)	0.776 µM (active)	0.231 µM (active)	1.75 µM (inactive)	1.61 µM (inactive)	1.05 µM (active)	1.59 µM (inactive)	1.27 µM (inactive)	0.871 µM (active)	0.188 µM (active)	1.52 µM (inactive)	1.51 µM (inactive)	1.41 µM (inactive)
Nc1nc2[nH]cc(CCc3ccc(C(=O)N[C@@H](CCC(=O)O)C(=O)O)cc3)c2c(=O)[nH]1 [PEMETREXED]	0.27 µM (active)	> 100 µM (inactive)	> 100 µM (inactive)	> 100 µM (inactive)	0.0652 µM (active)	> 100 µM (inactive)	> 100 µM (inactive)	> 100 µM (inactive)	< 0.0147 µM (active)	> 100 µM (inactive)	> 100 µM (inactive)	> 100 µM (inactive)	> 100 µM (inactive)	> 100 µM (inactive)	> 100 µM (inactive)	> 100 µM (inactive)	> 100 µM (inactive)	> 100 µM (inactive)	> 100 µM (inactive)	> 100 µM (inactive)
CC1=C(C(=O)Nc2ccccc2)C(c2ccc(N(C)C)cc2)C(C(=O)Nc2ccccc2)=C(C)N1	> 100 µM (inactive)	25.3 µM (inactive)	3.17 µM (inactive)	62.8 µM (inactive)	5.3 µM (inactive)	3.72 µM (inactive)	0.964 µM (active)	1.5 µM (inactive)	10.3 µM (inactive)	1.75 µM (inactive)	4.79 µM (inactive)	24.9 µM (inactive)	6.64 µM (inactive)	> 85.1 µM (inactive)	12.4 µM (inactive)	46.3 µM (inactive)	13.7 µM (inactive)	3.33 µM (inactive)	39.4 µM (inactive)	8.32 µM (inactive)
NCCOc1cccc(C2(N3CCCCC3)CCCCC2)c1	30 µM (inactive)	94 µM (inactive)	> 100 µM (inactive)	21.5 µM (inactive)	25 µM (inactive)	15.5 µM (inactive)	45.3 µM (inactive)	16.4 µM (inactive)	38.8 µM (inactive)	18.5 µM (inactive)	20.1 µM (inactive)	> 100 µM (inactive)	19.1 µM (inactive)	22 µM (inactive)	18.7 µM (inactive)	> 100 µM (inactive)	31.5 µM (inactive)	52.6 µM (inactive)	33.7 µM (inactive)	19 µM (inactive)
COc1cc2cc[n+](C)c(Cc3ccc(Oc4cc(Cc5c6cc(OC)c(OC)cc6cc[n+]5C)ccc4OC)cc3)c2cc1OC	> 100 µM (inactive)	> 100 µM (inactive)	> 100 µM (inactive)	> 100 µM (inactive)	45.2 µM (inactive)	> 100 µM (inactive)	> 100 µM (inactive)	> 100 µM (inactive)	> 100 µM (inactive)	> 100 µM (inactive)	> 100 µM (inactive)	> 100 µM (inactive)	> 100 µM (inactive)	> 100 µM (inactive)	> 100 µM (inactive)	> 100 µM (inactive)	> 100 µM (inactive)	> 100 µM (inactive)	40.3 µM (inactive)	> 100 µM (inactive)
COc1ccc(/C=C\c2cc(OC)c(OC)c(OC)c2)cc1OC	0.236 µM (active)	0.156 µM (active)	0.286 µM (active)	0.188 µM (active)	0.0912 µM (active)	0.124 µM (active)	0.0957 µM (active)	0.139 µM (active)	0.0968 µM (active)	0.0165 µM (active)	0.0746 µM (active)	0.216 µM (active)	0.0349 µM (active)	0.121 µM (active)	0.143 µM (active)	0.216 µM (active)	0.149 µM (active)	22.2 µM (inactive)	0.186 µM (active)	0.136 µM (active)
NC(Cc1ccccc1)C(=O)O (stereo not drawn) [DL-PHENYLALANINE]	> 100 µM (inactive)	> 100 µM (inactive)	> 100 µM (inactive)	> 100 µM (inactive)	> 100 µM (inactive)	> 100 µM (inactive)	> 100 µM (inactive)	> 100 µM (inactive)	> 100 µM (inactive)	> 100 µM (inactive)	> 100 µM (inactive)	> 100 µM (inactive)	> 100 µM (inactive)	> 100 µM (inactive)	> 100 µM (inactive)	> 100 µM (inactive)	> 100 µM (inactive)	> 100 µM (inactive)	> 100 µM (inactive)	> 100 µM (inactive)
CCOC(=O)C1=C(C)N(Cc2ccccc2)C2(O)C=CC(O)=C3C(=O)c4ccccc4C(=O)C312 (stereo not given)	23.6 µM (inactive)	12.1 µM (inactive)	16.5 µM (inactive)	16.4 µM (inactive)	15.1 µM (inactive)	31.5 µM (inactive)	12.1 µM (inactive)	4.99 µM (inactive)	0.128 µM (active)	6.37 µM (inactive)	2.43 µM (inactive)	8.61 µM (inactive)	11.9 µM (inactive)	3.37 µM (inactive)	28.6 µM (inactive)	13.5 µM (inactive)	13.6 µM (inactive)	18.9 µM (inactive)	18.5 µM (inactive)	17.2 µM (inactive)
